Reference: paper PMC2697495 (The Journal of pharmacy and pharmacology, 2008)
Marks after values point to notes of the source that are not given here.

Tests used:
UGT1A6 (HEK293) = biological target: T1, UGT1A6 (HEK293) (Homo sapiens, UniProt P19224); assay: 5-HT glucuronidation by recombinant UGT1A6; assay type: biochemical; conditions: for 5-HT glucuronidation, % of the control activity (measured at 0 mM): UGT1A6 (HEK293), 4 mM 5-HT, n=3
T1 sequence (P19224 27-532): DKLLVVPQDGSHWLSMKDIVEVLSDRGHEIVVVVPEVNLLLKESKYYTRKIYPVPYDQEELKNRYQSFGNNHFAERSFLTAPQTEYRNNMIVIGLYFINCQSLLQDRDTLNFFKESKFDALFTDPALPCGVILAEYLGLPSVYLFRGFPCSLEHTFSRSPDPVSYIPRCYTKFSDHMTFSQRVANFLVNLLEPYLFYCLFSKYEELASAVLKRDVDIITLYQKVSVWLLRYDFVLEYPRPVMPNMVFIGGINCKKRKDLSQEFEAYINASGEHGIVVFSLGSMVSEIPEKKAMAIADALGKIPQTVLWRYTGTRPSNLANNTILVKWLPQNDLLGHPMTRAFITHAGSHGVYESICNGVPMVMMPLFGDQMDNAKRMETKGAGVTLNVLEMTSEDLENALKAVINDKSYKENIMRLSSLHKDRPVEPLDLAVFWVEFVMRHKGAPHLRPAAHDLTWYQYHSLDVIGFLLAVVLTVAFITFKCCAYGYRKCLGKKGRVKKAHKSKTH

[1] = system: pooled human liver microsomes (pHLMs); assay: Trifluoperazine glucuronidation by pHLMs; assay type: biochemical; conditions: pHLM, 200 μM trifluoperazine, n=3
UGT2B7 = biological target: T2, UGT2B7 (Homo sapiens, UniProt P16662); assay: Codeine glucuronidation by recombinant UGT2B7; assay type: biochemical; conditions: 1 mM codeine, n=3
T2 sequence (P16662 24-529): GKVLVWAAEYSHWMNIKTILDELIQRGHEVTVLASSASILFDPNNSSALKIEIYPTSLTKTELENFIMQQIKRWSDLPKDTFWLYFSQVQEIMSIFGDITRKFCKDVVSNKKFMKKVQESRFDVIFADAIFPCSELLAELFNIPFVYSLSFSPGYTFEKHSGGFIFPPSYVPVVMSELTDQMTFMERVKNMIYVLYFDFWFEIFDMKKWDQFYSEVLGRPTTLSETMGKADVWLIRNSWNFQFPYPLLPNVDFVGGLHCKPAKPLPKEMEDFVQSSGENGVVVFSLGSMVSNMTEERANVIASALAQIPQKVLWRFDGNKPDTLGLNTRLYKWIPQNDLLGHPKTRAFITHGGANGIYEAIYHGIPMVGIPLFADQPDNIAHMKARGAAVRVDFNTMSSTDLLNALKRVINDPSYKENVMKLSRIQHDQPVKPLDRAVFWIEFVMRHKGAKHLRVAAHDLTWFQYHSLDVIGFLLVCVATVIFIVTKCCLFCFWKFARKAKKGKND

[2] = system: pooled human liver microsomes (pHLMs); assay: Salicylic acid; assay type: biochemical; conditions: pHLM, 5 mM salicylic acid, phenol glucuronide, n=3
UGT1A9 = UGT1A9 (Homo sapiens, UniProt O60656); assay: Salicylic acid; assay type: biochemical; conditions: 5 mM salicylic acid, n=3
Chain of UGT1A9 (O60656 26-530): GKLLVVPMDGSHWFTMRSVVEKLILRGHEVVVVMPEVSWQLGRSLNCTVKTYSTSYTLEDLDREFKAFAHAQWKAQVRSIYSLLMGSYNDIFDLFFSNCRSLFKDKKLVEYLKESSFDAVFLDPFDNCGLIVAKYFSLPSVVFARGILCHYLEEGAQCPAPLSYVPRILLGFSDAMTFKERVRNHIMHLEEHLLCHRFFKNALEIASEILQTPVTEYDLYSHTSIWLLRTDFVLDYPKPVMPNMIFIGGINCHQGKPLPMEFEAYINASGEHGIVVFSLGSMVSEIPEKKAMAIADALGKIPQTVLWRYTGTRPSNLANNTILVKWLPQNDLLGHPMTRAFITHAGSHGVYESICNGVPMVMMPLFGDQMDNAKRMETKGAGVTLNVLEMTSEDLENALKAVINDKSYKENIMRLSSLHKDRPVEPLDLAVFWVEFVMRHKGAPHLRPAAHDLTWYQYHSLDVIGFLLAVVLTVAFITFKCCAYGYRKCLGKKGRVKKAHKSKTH

UGT1A1 = biological target: T3, UGT1A1 (Homo sapiens, UniProt P22309); assay: Estradiol-3 glucuronidation by recombinant UGT1A1; assay type: biochemical; conditions: for Estradiol-3 glucuronidation, % of the control activity (measured at 0 mM): UGT1A1, 100 μM estradiol, n=3
T3 sequence (P22309 26-533): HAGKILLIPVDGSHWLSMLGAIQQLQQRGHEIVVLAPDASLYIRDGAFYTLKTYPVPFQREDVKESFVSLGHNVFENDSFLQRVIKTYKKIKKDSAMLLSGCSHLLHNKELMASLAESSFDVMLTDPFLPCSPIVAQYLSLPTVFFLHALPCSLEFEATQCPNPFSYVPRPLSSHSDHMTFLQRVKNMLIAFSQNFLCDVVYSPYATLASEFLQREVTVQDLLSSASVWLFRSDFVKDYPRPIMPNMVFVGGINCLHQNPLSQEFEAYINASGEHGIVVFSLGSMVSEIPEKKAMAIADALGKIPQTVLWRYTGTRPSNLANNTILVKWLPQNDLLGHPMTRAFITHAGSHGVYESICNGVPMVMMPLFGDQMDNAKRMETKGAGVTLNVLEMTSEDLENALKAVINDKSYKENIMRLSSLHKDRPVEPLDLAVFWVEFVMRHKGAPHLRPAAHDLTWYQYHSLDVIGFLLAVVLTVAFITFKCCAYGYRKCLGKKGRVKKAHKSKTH

UGT1A3 = biological target: T4, UGT1A3 (Homo sapiens, UniProt P35503); assay: Estradiol-3 glucuronidation by recombinant UGT1A3; assay type: biochemical; conditions: for Estradiol-3 glucuronidation, % of the control activity (measured at 0 mM): UGT1A3, 100 μM estradiol, n=3
T4 sequence (P35503 29-534): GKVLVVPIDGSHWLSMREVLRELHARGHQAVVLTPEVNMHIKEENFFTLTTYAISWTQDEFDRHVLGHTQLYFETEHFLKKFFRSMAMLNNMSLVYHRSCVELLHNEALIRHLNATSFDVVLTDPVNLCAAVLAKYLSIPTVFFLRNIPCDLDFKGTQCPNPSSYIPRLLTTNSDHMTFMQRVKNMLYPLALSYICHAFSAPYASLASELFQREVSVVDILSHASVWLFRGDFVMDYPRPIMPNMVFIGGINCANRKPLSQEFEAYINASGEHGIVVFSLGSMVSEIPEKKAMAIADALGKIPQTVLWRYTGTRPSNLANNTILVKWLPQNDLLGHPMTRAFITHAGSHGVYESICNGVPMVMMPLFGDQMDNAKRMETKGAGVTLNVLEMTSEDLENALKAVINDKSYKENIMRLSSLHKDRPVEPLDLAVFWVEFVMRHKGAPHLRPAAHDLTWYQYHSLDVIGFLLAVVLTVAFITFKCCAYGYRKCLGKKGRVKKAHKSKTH

[3] = system: endogenous β-glucuronidase, insect cell expressed UGT2B7; conditions: recombinant UGT2B7 preparation; 10 mM saccharolactone
HLMs = conditions: 5 mM saccharolactone, ref Kemp et al 2002; cited from earlier work
rats = conditions: in vivo in rats; ref Brunelle and Verbeeck (1997); cited from earlier work

O=C(O)[C@@H](O)[C@H]1OC(=O)[C@H](O)[C@H]1O [saccharolactone, D-saccharic acid 1,4-lactone]
5-HT glucuronidation, % of the control activity (measured at 0 mM) (UGT1A6 (HEK293); 5 mM saccharolactone): 91±6%
5-HT glucuronidation, % of the control activity (measured at 0 mM) (UGT1A6 (HEK293); 20 mM saccharolactone): 90±7%
effect on 5-hydroxytryptamine glucuronidation (UGT1A6 (HEK293); UGT1A6 expressed in mammalian (HEK293) cells, saccharolactone up to 20 mM): no effect
Trifluoperazine glucuronidation, % of the control activity (measured at 0 mM) ([1]; 1 mM saccharolactone): 98±5%
Trifluoperazine glucuronidation, % of the control activity (measured at 0 mM) ([1]; 2 mM saccharolactone): 101±9%
Trifluoperazine glucuronidation, % of the control activity (measured at 0 mM) ([1]; 5 mM saccharolactone): 95±3%
Trifluoperazine glucuronidation, % of the control activity (measured at 0 mM) ([1]; 10 mM saccharolactone): 93±4%
Trifluoperazine glucuronidation, % of the control activity (measured at 0 mM) ([1]; 20 mM saccharolactone): 97±5%
Codeine glucuronidation, % of the control activity (measured at 0 mM) (UGT2B7; 5 mM saccharolactone): 90±7%
Codeine glucuronidation, % of the control activity (measured at 0 mM) (UGT2B7; 20 mM saccharolactone): 90±3%
Salicylic Acid glucuronidation, % of the control activity (measured at 0 mM) ([2]; 1 mM saccharolactone): 101±5%
Salicylic Acid glucuronidation, % of the control activity (measured at 0 mM) ([2]; 2 mM saccharolactone): 111±5%
Salicylic Acid glucuronidation, % of the control activity (measured at 0 mM) ([2]; 5 mM saccharolactone): 83±3 ^a %
Salicylic Acid glucuronidation, % of the control activity (measured at 0 mM) ([2]; 10 mM saccharolactone): 90±1%
Salicylic Acid glucuronidation, % of the control activity (measured at 0 mM) ([2]; 20 mM saccharolactone): 85±9 ^a %
Salicylic Acid glucuronidation, % of the control activity (measured at 0 mM) (UGT1A9; 5 mM saccharolactone): 96±7%
Salicylic Acid glucuronidation, % of the control activity (measured at 0 mM) (UGT1A9; 20 mM saccharolactone): 99±7%
Estradiol-3 glucuronidation, % of the control activity (measured at 0 mM) (UGT1A1; 5 mM saccharolactone): 92±2%
Estradiol-3 glucuronidation, % of the control activity (measured at 0 mM) (UGT1A1; 20 mM saccharolactone): 87±5%
effect on estradiol glucuronidation (UGT1A1; recombinant UGT1A1): no effect
Estradiol-3 glucuronidation, % of the control activity (measured at 0 mM) (UGT1A3; 5 mM saccharolactone): 92±18%
Estradiol-3 glucuronidation, % of the control activity (measured at 0 mM) (UGT1A3; 20 mM saccharolactone): 97±10%
effect on estradiol glucuronidation (UGT1A3; recombinant UGT1A3): no effect
inhibition of estradiol glucuronide hydrolysis [3]: effective in the inhibition of hydrolysis
effect on raloxifene glucuronidation (HLMs): inhibited
effect on partial clearance of diflunisal acyl glucuronide (rats): increase
effect on partial clearance of diflunisal phenol glucuronide (rats): little effect
